In patent US20260062422A1 (Halda Therapeutics OpCo, Inc., priority 2022, published 2026):

How the values were obtained:
[1] = Cellular growth inhibition, T-Rex 293 SC cells with doxycycline (progesterone receptor isoform B induced), Example 45; type: cell-based; details: progesterone receptor isoform B induced with 10 ng/mL doxycycline, 72 hours, CellTiter-Glo 2.0, Table 11
[2] = tested on: T-Rex 293 cell line SC3 cells having increased expression of androgen receptor protein due to exposure to doxycycline; experiment: Cellular growth inhibition, T-Rex 293 SC3 cells with doxycycline (androgen receptor induced), CellTiter-Glo; type: cell-based; details: T-Rex 293 SC3 cells with 10 ng/mL doxycycline (increased androgen receptor expression), 72 hours
How it was run: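 Luminescence read-out (CellTiter-Glo 2.0) after 72 h compound exposure; GI50 by four-parameter nonlinear regression, baseline set at zero luminescence. SC3 cells, a doxycycline-inducible wild-type AR clone of T-Rex 293, were cultured ±10 ng/mL doxycycline in charcoal-dextran FBS medium.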

Cc1sc2c(c1C)C(c1ccc(CC3CC4(CCN(c5ccc(C(=O)N[C@H]6C(C)(C)[C@H](Oc7ccc(C#N)c(Cl)c7)C6(C)C)cn5)CC4)C3)cc1)=N[C@@H](Cc1ncco1)c1nnc(C)n1-2 [Compound I-143]
GI50 [1]: < 500 nM
GI50 [2]: < 500 nM

Cc1sc2c(c1C)C(c1ccc(N3CC(N4CCN(c5ncc(C(=O)N[C@H]6C(C)(C)[C@H](Oc7ccc(C#N)c(Cl)c7)C6(C)C)cn5)CC4)C3)cc1)=NC(Cc1ncco1)c1nnc(C)n1-2 (stereo partly shown) [Compound I-208]
GI50 [1]: < 500 nM
GI50 [2]: < 500 nM
